Laboratory results from ChEMBL document CHEMBL1201862, “PubChem BioAssay data set” (2004).
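Method: 48-hour compound exposure of cells in 96-well plates, five concentrations, linear interpolation of endpoints. GI50 is the concentration that inhibits growth by half.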 Calls of active or inactive are those of the source. Rule as the data show it: active = GI50 up to about 1.1 µM and inactive = higher. Numbered stars: 1 amine (or outer) side, 2 acyl side, 3 side chain; on linkers, the order of the positions; unused ones are H or OH. Square brackets hold non-standard residues; d marks the D form. Peptide text beside a SMILES is read from it. * marks the point of attachment. X30 = CC(=O)N(C)SCC(N[*:1])C(=O)[*:2]; Cbz = O=C(OCc1ccccc1)*; Bn = c1ccc(C*)cc1

Tests used:
Experiment in all cases: growth of human tumour cells (NCI), 48 h
OVCAR-3 = test system: OVCAR-3
UACC-62 = test system: UACC-62
Malme-3M = test system: Malme-3M
786-0 = test system: 786-0
HT-29 = test system: HT-29
SK-MEL-28 = test system: SK-MEL-28
K562 = test system: K562
MDA-N = test system: MDA-N
NCI-H460 = test system: NCI-H460
HCT-15 = test system: HCT-15
SF-295 = test system: SF-295
PC-3 = test system: PC-3
NCI-H522 = test system: NCI-H522
A498 = test system: A498
MDA-MB-435 = test system: MDA-MB-435
A549 = test system: A549
NCI-H23 = test system: NCI-H23
OVCAR-8 = test system: OVCAR-8
HL-60 = test system: HL-60
NCI-H226 = test system: NCI-H226

SMILES	GI50 (OVCAR-3)	GI50 (UACC-62)	GI50 (Malme-3M)	GI50 (786-0)	GI50 (HT-29)	GI50 (SK-MEL-28)	GI50 (K562)	GI50 (MDA-N)	GI50 (NCI-H460)	GI50 (HCT-15) [µM]	GI50 (SF-295)	GI50 (PC-3)	GI50 (NCI-H522)	GI50 (A498)	GI50 (MDA-MB-435)	GI50 (A549)	GI50 (NCI-H23)	GI50 (OVCAR-8)	GI50 (HL-60)	GI50 (NCI-H226)
O=C(O)c1cc(Cl)cc(Cc2cc(Cl)cc(C(=O)O)c2O)c1O	> 100 µM (inactive)	> 100 µM (inactive)	> 100 µM (inactive)	> 100 µM (inactive)	> 100 µM (inactive)	> 100 µM (inactive)	> 100 µM (inactive)	> 100 µM (inactive)	> 100 µM (inactive)	> 100	> 100 µM (inactive)	> 100 µM (inactive)	> 100 µM (inactive)	> 100 µM (inactive)	> 100 µM (inactive)	> 100 µM (inactive)	> 100 µM (inactive)	> 100 µM (inactive)	–	–
Cc1cc2c(cc1Cl)Sc1nnc(Nc3ccccc3)n1S2(=O)=O	2.2 µM (inactive)	–	–	4.75 µM (inactive)	23.4 µM (inactive)	15.8 µM (inactive)	8.69 µM (inactive)	6.05 µM (inactive)	8.36 µM (inactive)	5.07	13.3 µM (inactive)	5.7 µM (inactive)	2.93 µM (inactive)	12.7 µM (inactive)	5.01 µM (inactive)	12.1 µM (inactive)	3.59 µM (inactive)	5.97 µM (inactive)	1.98 µM (inactive)	3.08 µM (inactive)
CCc1n[nH]c(=O)n1CC	> 100 µM (inactive)	> 100 µM (inactive)	> 100 µM (inactive)	> 100 µM (inactive)	> 100 µM (inactive)	> 100 µM (inactive)	> 100 µM (inactive)	> 100 µM (inactive)	> 100 µM (inactive)	> 100	> 100 µM (inactive)	–	> 100 µM (inactive)	> 100 µM (inactive)	> 100 µM (inactive)	> 100 µM (inactive)	> 100 µM (inactive)	> 100 µM (inactive)	21.7 µM (inactive)	> 100 µM (inactive)
CN1C(=O)c2c(ccc3c2OCO3)C2C(O)Cc3cc4c(cc3C21)OCO4 (stereo unspecified)	5.2 µM (inactive)	3.36 µM (inactive)	–	4.17 µM (inactive)	3.3 µM (inactive)	3.22 µM (inactive)	4.71 µM (inactive)	1.91 µM (inactive)	3.4 µM (inactive)	3.73	1.71 µM (inactive)	2.58 µM (inactive)	2.87 µM (inactive)	3.18 µM (inactive)	1.61 µM (inactive)	5.96 µM (inactive)	5.58 µM (inactive)	5.11 µM (inactive)	2.4 µM (inactive)	2.15 µM (inactive)
CN(C)CCNc1ccc(NCC[N+](C)(C)Cc2ccc([N+](=O)[O-])cc2)c2c1C(=O)c1c(O)ccc(O)c1C2=O	> 100 µM (inactive)	31.6 µM (inactive)	–	18.2 µM (inactive)	25.8 µM (inactive)	> 100 µM (inactive)	6.08 µM (inactive)	20.7 µM (inactive)	–	6.82	–	56 µM (inactive)	–	> 100 µM (inactive)	35.2 µM (inactive)	–	54 µM (inactive)	> 100 µM (inactive)	54.2 µM (inactive)	15.3 µM (inactive)
CCOC(=O)/C(C#N)=N\Nc1ccc(-n2c(C)nc3ccc(Br)cc3c2=O)cc1	52.7 µM (inactive)	85.5 µM (inactive)	–	83.9 µM (inactive)	69.5 µM (inactive)	98.2 µM (inactive)	35.6 µM (inactive)	> 100 µM (inactive)	44.7 µM (inactive)	47.9	64.7 µM (inactive)	63.8 µM (inactive)	–	> 100 µM (inactive)	84.1 µM (inactive)	50.2 µM (inactive)	> 100 µM (inactive)	68.1 µM (inactive)	21.9 µM (inactive)	79.8 µM (inactive)
COc1ccccc1/C=C1\S/C(=N/Nc2nc(C)c(C(C)=O)s2)NC1=O	26.9 µM (inactive)	36.4 µM (inactive)	–	29.4 µM (inactive)	42.9 µM (inactive)	40.6 µM (inactive)	34 µM (inactive)	29.9 µM (inactive)	55.7 µM (inactive)	–	51.5 µM (inactive)	43.6 µM (inactive)	–	22.8 µM (inactive)	32.6 µM (inactive)	44.8 µM (inactive)	42.1 µM (inactive)	33.3 µM (inactive)	26.1 µM (inactive)	5.3 µM (inactive)
CCC(C)N1CN(c2ccccc2)C2(CCN(CC3COc4ccccc4O3)CC2)C1=O (stereo unspecified)	15.7 µM (inactive)	19 µM (inactive)	18.5 µM (inactive)	18 µM (inactive)	13.1 µM (inactive)	39.7 µM (inactive)	16.5 µM (inactive)	25.6 µM (inactive)	–	19.7	19 µM (inactive)	26.6 µM (inactive)	22.8 µM (inactive)	–	19.2 µM (inactive)	28.7 µM (inactive)	22.9 µM (inactive)	26.2 µM (inactive)	14.4 µM (inactive)	21 µM (inactive)
CC(=O)Nc1ccc2c(C)c3c(nc2n1)[nH]c1ccccc13	23.9 µM (inactive)	22.6 µM (inactive)	–	35.4 µM (inactive)	27.9 µM (inactive)	–	35.5 µM (inactive)	18.1 µM (inactive)	21.1 µM (inactive)	15.5	34.3 µM (inactive)	27.2 µM (inactive)	20 µM (inactive)	60.7 µM (inactive)	29.6 µM (inactive)	41.1 µM (inactive)	25.2 µM (inactive)	24.9 µM (inactive)	–	23.4 µM (inactive)
CN(CC#N)C(=O)Cc1ccc([N+](=O)[O-])cc1	> 10 µM (inactive)	> 10 µM (inactive)	> 10 µM (inactive)	> 10 µM (inactive)	> 10 µM (inactive)	> 10 µM (inactive)	> 10 µM (inactive)	> 10 µM (inactive)	> 10 µM (inactive)	> 10	> 10 µM (inactive)	> 10 µM (inactive)	–	> 10 µM (inactive)	> 10 µM (inactive)	> 10 µM (inactive)	> 10 µM (inactive)	> 10 µM (inactive)	> 10 µM (inactive)	> 10 µM (inactive)
CN(C)c1ccc(C2SCC(=O)N2c2ccc(Oc3ccc(Cl)cc3)c(Cl)c2)cc1 (stereo unspecified)	23.3 µM (inactive)	19 µM (inactive)	15.1 µM (inactive)	17.7 µM (inactive)	20.2 µM (inactive)	35 µM (inactive)	–	28.6 µM (inactive)	22.5 µM (inactive)	24.2	> 10 µM (inactive)	19.9 µM (inactive)	18.3 µM (inactive)	–	22.7 µM (inactive)	22.7 µM (inactive)	18.5 µM (inactive)	28.2 µM (inactive)	20.3 µM (inactive)	30.4 µM (inactive)
Cc1nc(/C(=N\n2cnnc2)Nc2ccc(Br)cc2)no1	> 100 µM (inactive)	> 100 µM (inactive)	> 100 µM (inactive)	> 100 µM (inactive)	> 100 µM (inactive)	> 100 µM (inactive)	57.1 µM (inactive)	> 100 µM (inactive)	> 100 µM (inactive)	> 100	> 100 µM (inactive)	> 100 µM (inactive)	> 100 µM (inactive)	> 100 µM (inactive)	> 100 µM (inactive)	> 100 µM (inactive)	> 100 µM (inactive)	> 100 µM (inactive)	–	–
COC(=O)c1ccc(OCCn2nnc(C(=O)NN)c2C(=O)NN)cc1	> 100 µM (inactive)	–	> 100 µM (inactive)	> 100 µM (inactive)	> 100 µM (inactive)	> 100 µM (inactive)	> 100 µM (inactive)	> 100 µM (inactive)	74 µM (inactive)	> 100	> 100 µM (inactive)	> 100 µM (inactive)	–	–	> 100 µM (inactive)	> 100 µM (inactive)	> 100 µM (inactive)	> 100 µM (inactive)	> 100 µM (inactive)	–
O=C1OC(c2ccc(O)c(Cl)c2)(c2ccc(O)c(Cl)c2)c2ccc(Br)c3cccc1c23.O=C1OC(c2ccc(O)c(Cl)c2)(c2ccc(O)c(Cl)c2)c2cccc3c(Br)ccc1c23	5.82 µM (inactive)	12.4 µM (inactive)	18.9 µM (inactive)	19 µM (inactive)	11.5 µM (inactive)	20.9 µM (inactive)	22.7 µM (inactive)	21 µM (inactive)	16.4 µM (inactive)	24.8	18.3 µM (inactive)	14.3 µM (inactive)	–	18.7 µM (inactive)	18 µM (inactive)	18.8 µM (inactive)	16.7 µM (inactive)	27.8 µM (inactive)	–	17.7 µM (inactive)
CC(=O)N(C)SCC(NC(=O)C(Cc1ccccc1)NC(=O)OCc1ccccc1)C(=O)NC(Cc1ccccc1)C(=O)NC(Cc1c[nH]c2ccccc12)C(=O)NC(CCCCNC(=O)OCc1ccccc1)C(=O)NC(C(=O)NC(CSN(C)C(C)=O)C(=O)NC(C(N)=O)C(C)OCc1ccccc1)C(C)OCc1ccccc1 (stereo unspecified) (Cbz-F[X30]FWK(Cbz)T(Bn)[X30]T(Bn)-NH2; configuration not given here)	> 100 µM (inactive)	> 100 µM (inactive)	> 100 µM (inactive)	> 100 µM (inactive)	> 100 µM (inactive)	> 100 µM (inactive)	> 100 µM (inactive)	> 100 µM (inactive)	> 100 µM (inactive)	> 100	> 100 µM (inactive)	> 100 µM (inactive)	–	–	> 100 µM (inactive)	> 100 µM (inactive)	> 100 µM (inactive)	> 100 µM (inactive)	> 100 µM (inactive)	> 100 µM (inactive)
